Source: ChEMBL document CHEMBL4507274 (2021)

How the values were obtained:
[1] = target: Tyrosine-protein kinase ABL1 (Homo sapiens) (UniProt P00519); details: Compound concentration 100.0 nM
[2] = target: Activin receptor type-1 (Homo sapiens) (UniProt Q04771); details: Compound concentration 100.0 nM
[3] = target: Atypical kinase COQ8A, mitochondrial (Homo sapiens) (UniProt Q8NI60); details: Compound concentration 100.0 nM
[4] = target: Serine/threonine-protein kinase BRSK1 (Homo sapiens) (UniProt Q8TDC3); details: Compound concentration 100.0 nM
[5] = target: Calcium/calmodulin-dependent protein kinase type II subunit gamma (Homo sapiens) (UniProt Q13555); details: Compound concentration 100.0 nM
[6] = target: Cyclin-dependent kinase-like 2 (Homo sapiens) (UniProt Q92772); details: Compound concentration 100.0 nM
[7] = target: Dual specificity tyrosine-phosphorylation-regulated kinase 1A (Homo sapiens) (UniProt Q13627); details: Compound concentration 100.0 nM
[8] = target: Dual specificity tyrosine-phosphorylation-regulated kinase 1B (Homo sapiens) (UniProt Q9Y463); details: Compound concentration 100.0 nM
[9] = target: Receptor tyrosine-protein kinase erbB-2 (Homo sapiens) (UniProt P04626); details: Compound concentration 100.0 nM
[10] = target: Mitogen-activated protein kinase 3 (Homo sapiens) (UniProt P27361); details: Compound concentration 100.0 nM
[11] = target: Vascular endothelial growth factor receptor 1 (Homo sapiens) (UniProt P17948); details: Compound concentration 100.0 nM
[12] = target: Tyrosine-protein kinase FRK (Homo sapiens) (UniProt P42685); details: Compound concentration 100.0 nM
[13] = target: Beta-adrenergic receptor kinase 1 (Homo sapiens) (UniProt P25098); details: Compound concentration 100.0 nM
[14] = target: Homeodomain-interacting protein kinase 4 (Homo sapiens) (UniProt Q8NE63); details: Compound concentration 100.0 nM
[15] = target: Mitogen-activated protein kinase kinase kinase kinase 1 (Homo sapiens) (UniProt Q92918); details: Compound concentration 100.0 nM
[16] = target: Inhibitor of nuclear factor kappa-B kinase subunit epsilon (Homo sapiens) (UniProt Q14164); details: Compound concentration 100.0 nM
[17] = target: Tyrosine-protein kinase JAK3 (Homo sapiens) (UniProt P52333); details: Compound concentration 100.0 nM
[18] = target: Mitogen-activated protein kinase 8 (Homo sapiens) (UniProt P45983); details: Compound concentration 100.0 nM
[19] = target: LIM domain kinase 1 (Homo sapiens) (UniProt P53667); details: Compound concentration 100.0 nM
[20] = target: MAP kinase-interacting serine/threonine-protein kinase 2 (Homo sapiens) (UniProt Q9HBH9); details: Compound concentration 100.0 nM
[21] = target: Mitogen-activated protein kinase kinase kinase 11 (Homo sapiens) (UniProt Q16584); details: Compound concentration 100.0 nM
[22] = target: Serine/threonine-protein kinase MRCK alpha (Homo sapiens) (UniProt Q5VT25); details: Compound concentration 100.0 nM
[23] = target: Serine/threonine-protein kinase NIM1 (Homo sapiens) (UniProt Q8IY84); details: Compound concentration 100.0 nM
[24] = target: 3-phosphoinositide-dependent protein kinase 1 (Homo sapiens) (UniProt O15530); details: Compound concentration 100.0 nM
[25] = target: Cyclin-dependent kinase 14 (Homo sapiens) (UniProt O94921); details: Compound concentration 100.0 nM
[26] = test system: Phosphatidylinositol 4,5-bisphosphate 3-kinase catalytic subunit alpha isoform (Homo sapiens), P42336 [C420R]; details: Compound concentration 100.0 nM
[27] = target: Serine/threonine-protein kinase pim-3 (Homo sapiens) (UniProt Q86V86); details: Compound concentration 100.0 nM
[28] = target: Serine/threonine-protein kinase RIO1 (Homo sapiens) (UniProt Q9BRS2); details: Compound concentration 100.0 nM
[29] = target: Ribosomal protein S6 kinase alpha-4 (Homo sapiens) (UniProt O75676); details: Compound concentration 100.0 nM
[30] = target: Ribosomal protein S6 kinase alpha-3 (Homo sapiens) (UniProt P51812); details: Compound concentration 100.0 nM
[31] = target: Serine/threonine-protein kinase 16 (Homo sapiens) (UniProt O75716); details: Compound concentration 100.0 nM
[32] = target: Serine/threonine-protein kinase 35 (Homo sapiens) (UniProt Q8TDR2); details: Compound concentration 100.0 nM
[33] = target: Non-receptor tyrosine-protein kinase TNK1 (Homo sapiens) (UniProt Q13470); details: Compound concentration 100.0 nM
[34] = target: Vascular endothelial growth factor receptor 2 (Homo sapiens) (UniProt P35968); details: Compound concentration 100.0 nM
[35] = target: Serine/threonine-protein kinase WNK3 (Homo sapiens) (UniProt Q9BYP7); details: Compound concentration 100.0 nM
[36] = target: Mu-type opioid receptor (Homo sapiens) (UniProt P35372); details: Compound concentration 10.0 uM
[37] = target: Alpha-1A adrenergic receptor (Homo sapiens) (UniProt P35348); details: Compound concentration 10.0 uM

Chain of Serine/threonine-protein kinase 16 (Homo sapiens) (O75716 whole entry): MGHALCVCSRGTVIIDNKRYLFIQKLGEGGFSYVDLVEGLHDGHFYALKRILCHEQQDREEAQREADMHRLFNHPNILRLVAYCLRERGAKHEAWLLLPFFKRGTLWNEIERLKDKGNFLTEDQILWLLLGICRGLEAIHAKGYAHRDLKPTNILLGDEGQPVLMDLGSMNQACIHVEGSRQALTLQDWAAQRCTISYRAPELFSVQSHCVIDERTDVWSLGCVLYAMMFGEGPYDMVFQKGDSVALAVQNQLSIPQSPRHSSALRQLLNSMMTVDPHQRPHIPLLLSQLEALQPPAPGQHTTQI
Chain of Serine/threonine-protein kinase MRCK alpha (Homo sapiens) (Q5VT25 whole entry): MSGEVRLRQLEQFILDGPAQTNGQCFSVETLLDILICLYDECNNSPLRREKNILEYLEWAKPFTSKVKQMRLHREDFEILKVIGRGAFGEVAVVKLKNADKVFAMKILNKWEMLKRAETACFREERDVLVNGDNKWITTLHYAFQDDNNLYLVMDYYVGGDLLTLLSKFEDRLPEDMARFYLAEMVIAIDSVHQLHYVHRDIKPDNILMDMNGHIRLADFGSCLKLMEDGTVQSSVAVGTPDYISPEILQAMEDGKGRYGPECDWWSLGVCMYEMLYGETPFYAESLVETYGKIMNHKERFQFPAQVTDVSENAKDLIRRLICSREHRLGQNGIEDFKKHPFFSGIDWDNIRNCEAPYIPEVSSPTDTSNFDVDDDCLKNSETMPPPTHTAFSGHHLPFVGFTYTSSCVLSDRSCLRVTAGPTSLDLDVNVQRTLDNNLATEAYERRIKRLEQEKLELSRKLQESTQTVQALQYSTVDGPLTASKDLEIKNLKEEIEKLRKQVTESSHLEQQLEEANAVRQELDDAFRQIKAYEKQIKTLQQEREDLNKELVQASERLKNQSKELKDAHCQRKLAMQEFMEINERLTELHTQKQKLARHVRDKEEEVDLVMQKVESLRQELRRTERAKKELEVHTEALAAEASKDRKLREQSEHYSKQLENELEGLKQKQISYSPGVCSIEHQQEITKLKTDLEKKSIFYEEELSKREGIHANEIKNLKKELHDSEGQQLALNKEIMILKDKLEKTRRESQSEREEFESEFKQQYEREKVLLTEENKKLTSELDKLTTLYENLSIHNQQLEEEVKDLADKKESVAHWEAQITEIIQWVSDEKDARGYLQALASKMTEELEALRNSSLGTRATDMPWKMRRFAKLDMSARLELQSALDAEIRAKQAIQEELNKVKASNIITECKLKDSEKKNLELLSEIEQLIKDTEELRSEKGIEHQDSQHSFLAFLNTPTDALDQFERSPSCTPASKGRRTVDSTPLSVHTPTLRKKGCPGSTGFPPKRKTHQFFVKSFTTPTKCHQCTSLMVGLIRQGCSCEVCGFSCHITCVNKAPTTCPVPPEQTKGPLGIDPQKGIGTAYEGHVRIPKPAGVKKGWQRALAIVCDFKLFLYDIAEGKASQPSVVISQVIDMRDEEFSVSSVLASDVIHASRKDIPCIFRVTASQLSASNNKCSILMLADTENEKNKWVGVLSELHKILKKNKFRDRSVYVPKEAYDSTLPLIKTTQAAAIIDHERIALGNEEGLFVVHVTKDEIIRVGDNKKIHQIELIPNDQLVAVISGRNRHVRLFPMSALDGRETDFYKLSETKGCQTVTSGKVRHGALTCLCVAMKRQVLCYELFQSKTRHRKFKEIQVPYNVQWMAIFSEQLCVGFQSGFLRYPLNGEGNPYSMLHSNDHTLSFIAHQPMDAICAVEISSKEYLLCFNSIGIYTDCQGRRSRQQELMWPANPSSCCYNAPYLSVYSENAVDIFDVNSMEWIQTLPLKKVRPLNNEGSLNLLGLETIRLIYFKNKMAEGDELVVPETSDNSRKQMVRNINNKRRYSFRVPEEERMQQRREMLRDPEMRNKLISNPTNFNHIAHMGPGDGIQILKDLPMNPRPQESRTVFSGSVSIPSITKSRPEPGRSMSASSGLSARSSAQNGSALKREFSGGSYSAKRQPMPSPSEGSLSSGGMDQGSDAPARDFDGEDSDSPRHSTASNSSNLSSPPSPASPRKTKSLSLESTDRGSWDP
Chain of Tyrosine-protein kinase JAK3 (Homo sapiens) (P52333 whole entry): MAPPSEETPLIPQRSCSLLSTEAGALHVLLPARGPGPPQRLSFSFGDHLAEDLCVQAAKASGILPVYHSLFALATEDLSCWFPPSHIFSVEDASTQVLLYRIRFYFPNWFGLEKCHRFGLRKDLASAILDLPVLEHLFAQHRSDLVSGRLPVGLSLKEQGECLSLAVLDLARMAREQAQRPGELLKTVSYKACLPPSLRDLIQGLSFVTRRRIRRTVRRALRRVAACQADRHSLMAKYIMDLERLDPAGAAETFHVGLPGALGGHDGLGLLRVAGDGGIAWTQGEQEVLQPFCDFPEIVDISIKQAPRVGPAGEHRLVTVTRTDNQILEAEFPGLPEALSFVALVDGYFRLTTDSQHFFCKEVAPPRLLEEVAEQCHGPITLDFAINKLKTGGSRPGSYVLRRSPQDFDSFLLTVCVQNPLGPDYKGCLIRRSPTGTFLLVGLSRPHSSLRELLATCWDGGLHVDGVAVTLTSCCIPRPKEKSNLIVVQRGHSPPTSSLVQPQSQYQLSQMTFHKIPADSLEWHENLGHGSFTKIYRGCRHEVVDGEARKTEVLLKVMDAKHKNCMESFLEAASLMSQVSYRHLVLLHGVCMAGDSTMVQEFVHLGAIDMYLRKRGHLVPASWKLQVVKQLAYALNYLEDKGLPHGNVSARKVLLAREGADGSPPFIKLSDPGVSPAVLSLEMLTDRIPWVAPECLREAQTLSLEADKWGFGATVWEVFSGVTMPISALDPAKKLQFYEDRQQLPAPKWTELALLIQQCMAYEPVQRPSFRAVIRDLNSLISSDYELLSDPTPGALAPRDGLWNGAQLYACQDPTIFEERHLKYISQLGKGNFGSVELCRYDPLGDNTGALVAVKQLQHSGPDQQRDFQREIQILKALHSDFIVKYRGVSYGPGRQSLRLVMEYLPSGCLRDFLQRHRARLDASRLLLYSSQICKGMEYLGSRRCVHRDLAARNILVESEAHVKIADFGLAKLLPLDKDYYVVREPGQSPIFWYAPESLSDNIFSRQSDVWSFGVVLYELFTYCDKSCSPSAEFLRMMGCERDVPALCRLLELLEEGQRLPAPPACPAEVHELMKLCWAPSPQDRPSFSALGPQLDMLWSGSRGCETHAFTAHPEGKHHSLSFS
Chain of Cyclin-dependent kinase-like 2 (Homo sapiens) (Q92772 whole entry): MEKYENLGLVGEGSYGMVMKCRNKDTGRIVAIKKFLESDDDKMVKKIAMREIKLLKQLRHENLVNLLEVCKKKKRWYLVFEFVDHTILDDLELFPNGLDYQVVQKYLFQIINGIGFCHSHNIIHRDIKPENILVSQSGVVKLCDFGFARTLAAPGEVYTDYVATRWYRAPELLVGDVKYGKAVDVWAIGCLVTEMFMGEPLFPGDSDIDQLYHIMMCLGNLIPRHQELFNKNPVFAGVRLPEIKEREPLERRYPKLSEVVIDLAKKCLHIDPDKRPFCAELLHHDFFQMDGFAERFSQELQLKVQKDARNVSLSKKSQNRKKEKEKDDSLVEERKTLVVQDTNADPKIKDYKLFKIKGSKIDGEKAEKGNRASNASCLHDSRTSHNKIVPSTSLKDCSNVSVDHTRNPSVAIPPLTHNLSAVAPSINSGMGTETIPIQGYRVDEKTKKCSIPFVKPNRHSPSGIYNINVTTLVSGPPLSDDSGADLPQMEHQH
Chain of Receptor tyrosine-protein kinase erbB-2 (Homo sapiens) (P04626 whole entry): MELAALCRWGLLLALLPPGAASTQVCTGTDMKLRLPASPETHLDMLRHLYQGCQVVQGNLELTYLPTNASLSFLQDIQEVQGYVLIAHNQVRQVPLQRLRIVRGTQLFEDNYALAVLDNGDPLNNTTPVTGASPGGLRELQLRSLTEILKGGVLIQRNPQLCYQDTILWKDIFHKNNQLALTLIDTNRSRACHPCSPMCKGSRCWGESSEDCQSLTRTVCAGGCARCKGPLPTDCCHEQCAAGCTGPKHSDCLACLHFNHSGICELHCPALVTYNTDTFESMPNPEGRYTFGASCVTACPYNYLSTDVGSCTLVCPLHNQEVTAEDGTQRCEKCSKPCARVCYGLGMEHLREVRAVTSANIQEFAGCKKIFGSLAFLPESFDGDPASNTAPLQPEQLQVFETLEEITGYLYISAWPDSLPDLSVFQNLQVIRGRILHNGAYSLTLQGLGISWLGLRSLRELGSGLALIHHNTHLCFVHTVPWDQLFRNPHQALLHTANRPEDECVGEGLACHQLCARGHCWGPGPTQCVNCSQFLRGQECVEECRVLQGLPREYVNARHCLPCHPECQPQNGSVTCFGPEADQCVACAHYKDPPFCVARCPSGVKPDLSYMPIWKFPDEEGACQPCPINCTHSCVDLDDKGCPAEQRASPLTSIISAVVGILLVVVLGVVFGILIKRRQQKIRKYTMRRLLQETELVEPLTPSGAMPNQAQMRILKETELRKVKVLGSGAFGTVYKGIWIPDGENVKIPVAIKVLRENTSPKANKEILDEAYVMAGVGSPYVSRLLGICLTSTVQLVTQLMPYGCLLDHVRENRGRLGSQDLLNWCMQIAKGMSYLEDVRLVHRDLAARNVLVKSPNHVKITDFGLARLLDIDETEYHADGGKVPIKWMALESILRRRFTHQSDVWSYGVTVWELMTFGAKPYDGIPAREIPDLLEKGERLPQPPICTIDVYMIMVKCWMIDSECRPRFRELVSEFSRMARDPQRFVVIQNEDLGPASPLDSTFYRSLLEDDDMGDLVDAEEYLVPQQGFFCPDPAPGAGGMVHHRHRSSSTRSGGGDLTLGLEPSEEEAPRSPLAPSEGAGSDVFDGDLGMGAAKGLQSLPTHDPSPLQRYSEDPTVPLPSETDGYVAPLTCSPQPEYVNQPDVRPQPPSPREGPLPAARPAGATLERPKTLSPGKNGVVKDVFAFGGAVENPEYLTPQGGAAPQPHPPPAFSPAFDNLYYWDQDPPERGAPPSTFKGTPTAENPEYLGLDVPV

Cn1cc(Cl)c2c(Oc3c(F)cc(Nc4cc(Cl)nc(N)n4)cc3F)ccnc21 [BAY-4900]
inactive: residual activity [1] 89% | residual activity [2] 85% | residual activity [3] 100% | residual activity [4] 100% | residual activity [5] 100% | residual activity [6] 100% | residual activity [7] 98% | residual activity [8] 82% | residual activity [9] 95% | residual activity [10] 98% | residual activity [11] 100% | residual activity [12] 81% | residual activity [13] 81% | residual activity [14] 100% | residual activity [15] 82% | residual activity [16] 100% | residual activity [17] 94% | residual activity [18] 76% | residual activity [19] 90% | residual activity [20] 90% | residual activity [21] 100% | residual activity [22] 84% | residual activity [23] 93% | residual activity [24] 61% | residual activity [25] 100% | residual activity [26] 82% | residual activity [27] 100% | residual activity [28] 100% | residual activity [29] 87% | residual activity [30] 79% | residual activity [31] 100% | residual activity [32] 99% | residual activity [33] 100% | residual activity [34] 93% | residual activity [35] 95% | inhibition [36] -9.98% | inhibition [37] -5.31%

Cc1c[nH]c2nccc(Oc3c(F)cc(Nc4cc(Cl)nc(N)n4)cc3F)c12 [BAY-549]
inactive: residual activity [1] 89% | residual activity [2] 94% | residual activity [3] 100% | residual activity [4] 96% | residual activity [5] 96% | residual activity [6] 93% | residual activity [7] 88% | residual activity [8] 100% | residual activity [9] 99% | residual activity [10] 90% | residual activity [11] 100% | residual activity [12] 100% | residual activity [13] 98% | residual activity [14] 100% | residual activity [15] 73% | residual activity [16] 93% | residual activity [17] 92% | residual activity [18] 80% | residual activity [19] 87% | residual activity [20] 90% | residual activity [21] 100% | residual activity [22] 98% | residual activity [23] 75% | residual activity [24] 100% | residual activity [25] 100% | residual activity [26] 89% | residual activity [27] 100% | residual activity [28] 100% | residual activity [29] 100% | residual activity [30] 73% | residual activity [31] 87% | residual activity [32] 94% | residual activity [33] 100% | residual activity [34] 81% | residual activity [35] 90% | inhibition [36] -0.03% | inhibition [37] -7.18%
